# In patent US20240368123A1, “AROMATIC RING-CONTAINING BIOLOGICAL ANTAGONIST, AND PREPARATION METHOD THEREFOR AND USE THEREOF” (SHANGHAI HANSOH BIOMEDICAL CO., LTD., priority 2021, published 2024):
# Legend:
# [1] = Liver microsomal metabolism stability test, rat; type: in vitro ADME; details: rat liver microsomes, 60 min
# Protocol: (§1) The purpose of this experiment was to detect the stability of the example compounds in liver microsomes of rats, dogs and humans.
# (§2) • Formulation of working solution of compounds: compound stock solution was added to phosphate buffer to a final concentration of 20 μM.
# (§3) Dilution was performed with 100 mM phosphate buffer to a final concentration of 0.625 mg/mL.
# (§4) NADPH (reduced nicotinamide adenine dinucleotide phosphate) and UDPGA (uridine diphosphate glucuronic acid) were weighed, 100 mM phosphate buffer was added, and the final concentration was 20 mM.
# (§5) 1 mg of Alamethicin was weighed, and 200 μL of DMSO was added to formulate a 5 mg/mL solution. Then dilution was performed with phosphate buffer to a final concentration of 50 μg/mL.
# (§6) Stop solution: the stop solution contains 100 ng/mL labetalol hydrochloride and 400 ng/mL tolbutamide and cold acetonitrile as internal standard.
# (§7) 400 μL of formulated liver microsomes, 25 μL of compound working solution and 25 μL of Alamethicin were added in sequence to the 96-well plate, and pre-incubated at 37° C. for 10 min. Then 50 μL of formulated NADPH/UDPGA was added to start the reaction and the mixture was incubated at 37° C. The total volume of the reaction system was 500 μL. The final contents of each component are as follows:
# (§8) • Instrument: Shimadzu LC-30 AD; • Chromatographic column: XBridge® C18 (50*4.6 mm, 5 μm particle size); • Mobile phase: A: 0.1% formic acid solution, B: methanol Wash gradient: 0.2-1.6 min 5% A to 95% A, 3.0-3.1 min 95% A to 5% A Run time: 4.0 min.
# (§9) • Instrument: API5500 liquid chromatography mass spectrometer, AB Sciex; • Ion source: electrospray ionization source (ESI); • Drying gas: N2, temperature 500° C.; • Electrospray voltage: 5000 V; • Detection mode: positive ion detection; • Scanning mode: reaction monitoring (MRM) mode.
# [2] = Liver microsomal metabolism stability test, dog; type: in vitro ADME; details: dog liver microsomes, 60 min
# Protocol: as §1, §2, §3, §4, §5, §6, §7, §8, §9
# [3] = Liver microsomal metabolism stability test, human; type: in vitro ADME; details: human liver microsomes, 60 min
# Protocol: as §1, §2, §3, §4, §5, §6, §7, §8, §9
# [4] = tested on: spontaneously hypertensive rat (SHR) model; assay: Pharmacodynamic evaluation on blood pressure in spontaneously hypertensive rats; type: in vivo; details: P.O, 30 mpk, 1-8 h after administration, P<0.05
# From the text: This experiment used a spontaneously hypertensive rat (SHR) model to evaluate the pharmacodynamic effect of the test compounds on the blood pressure and heart rate of the model.
# Kent Scientific CODA non-invasive blood pressure system.
# Spontaneously hypertensive rats (SHR) were provided by Beijing Vital River Laboratory Animal Technology Co., Ltd., male, 150-200 g, 13-15 weeks old, 50 rats.
# After animals arrived at the experimental facility, the animals were adapted to the animal facility for 5-7 days. 4.2 After the adaptation period, the animals were adapted to the tail oversleeve restrain for 3 days, and the tail oversleeve restrain was performed twice a day. After the last restrain adaptation, the basal blood pressure was measured, and the animals were randomly divided into groups according to the basal blood pressure. There was no significant difference between the average systolic blood pressure of animals in each group, and the number of animals in each group met the requirements of statistical testing and pharmacodynamic guidelines. 4.3 On the second day after grouping, the animals were administered according to experimental design and grouping (P.O, 5 mL/kg), and the systolic blood pressure (SBP), diastolic blood pressure (DBP), mean arterial pressure (MAP) and heart rate (HR) of the animals were measured before administration and at 1, 2, 4, 6, 8 and 24 h after administration using tail oversleeve method.
# Statistical differences between groups were analyzed by Two-way ANOVA test. Among them, P<0.05 indicated a significant difference, and P<0.01 indicated an extremely significant difference.
# AT1 receptors = target: T1, AT1 receptors (Homo sapiens, UniProt P30556); assay: Effect on calcium current in cells stably expressing AT1 receptors (FLIPR, antagonist mode); type: cell-based; details: HEK293-AT1 cells, Fluo-8 AM, FLIPR Tetra; read-out: IC50 values of compounds on calcium current in cells stably expressing AT1 receptors
# T1 construct: host or cells: HEK293
# T1 sequence (P30556 1-359): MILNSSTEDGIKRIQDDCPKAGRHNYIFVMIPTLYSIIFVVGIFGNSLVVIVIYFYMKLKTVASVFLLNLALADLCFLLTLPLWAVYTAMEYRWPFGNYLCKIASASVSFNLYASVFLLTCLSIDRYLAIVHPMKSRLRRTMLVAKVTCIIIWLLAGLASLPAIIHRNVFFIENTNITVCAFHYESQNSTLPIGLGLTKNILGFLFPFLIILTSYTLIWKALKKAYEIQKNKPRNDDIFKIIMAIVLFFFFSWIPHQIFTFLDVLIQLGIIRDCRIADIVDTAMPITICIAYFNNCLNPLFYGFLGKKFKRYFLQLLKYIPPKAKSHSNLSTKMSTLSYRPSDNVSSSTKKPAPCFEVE
# From the text: Test Example 1. Determination of the Effect of the Compounds of the Present Invention on Calcium Current in Cells Stably Expressing AT1 Receptors
# Antagonistic effect of test compounds on HEK293-AT1 cell activity
# • DMEM, high glucose (Gibco: 12100); • Fetal bovine serum (Biosera: FB-1058/500); • P/S (Biosera: XC-A4122); • 5× Matrigel (Corning: 354230); • HBSS (Sigma: H1387); • HEPES (Invitrogen: 15630080); • Fluo-8 AM (AAT Bioquest: 21080); • Probenecid (Sigma: P8761); • Pluronic F-127 (Sigma: P2443-250G); • Angiotensin III TFA (MCE: HY-113035A); • Irbesartan (MCE: HY—B0202); • 1000× Fluo-8 AM (2 mM): Fluo-8 AM was dissolved in DMSO, the mixture was shaken for 1-2 min, sub-packaged and stored at −20° C.; • Complete culture medium: DMEM+10% FBS+1×P/S; • Cell seeding medium: DMEM+10% FBS+1×PS; • Experimental buffer 1: 1×HBSS+20 mM HEPES+1 mM Probenecid+0.025% Pluronic F-127; • Experimental buffer 2: 1×HBSS+20 mM HEPES+0.075% Pluronic F-127; • 1× Matrigel: 5× Matrigel was diluted with DMEM; • Cell line: HDB HEK293-AT1.
# • 1) HEK293-AT1 cell line was cultured in complete culture medium at 37° C., 5% CO2 to 70%-90% confluence. • 2) the 384-well cell plate was coated with 1× Matrigel with 5 μL/well at room temperature for 10 to 30 min. • 3) the cells were digested and resuspended in cell seeding medium, inoculation was performed at 8,000 cells/well/20 μL in a 384-well cell culture plate, and the cells were cultured at 37° C., 5% CO2 for 24 h. • 4) the cell culture plate was taken out of the CO2 incubator and equilibrated at room temperature for 10 min. • 5) 1000× Fluo-8 AM was taken and diluted to 1× Fluo-8 AM with experimental buffer 1 that has been equilibrated to room temperature, with a concentration of 2 μM. • 6) the culture medium was removed from the cell culture plate, 20 μL of 1× Fluo-8 AM was added to each well, the mixture was centrifuged at 300 rpm for 60 seconds at room temperature, and incubated at room temperature in the dark for 1 h. • 7) positive control compound and test compound working solution (3×) were formulated: • (1) instrument Bravo was used to dilute the compound to 11 concentration points on the 384-well Echo compound plate (LABCYTE: LP-0200); • (2) instrument ECHO was used to transfer 90 nL of compound per well (compound storage concentration, such as the highest concentration point 10 mM) to the 384-well compound plate (PE: 6008590); • (3) Multidrop Combi was used to add 30 μL of experimental buffer 2 to the 384-well compound plate (PE: 6008590), the positive control compound and test compound were diluted to 30 μM (3×), and placed at room temperature until use. • 8) FLIPR Tetra was used to add 10 μL of diluted 3× compound into the experimental well of the corresponding 384-well cell plate, the compound and cells were incubated for 10 min at room temperature, then 10 μL of diluted 4× agonist was added, and the data was read and collected at the same time.
# FLIPR Tetra was used to read and collect the fluorescence signal value (RFU). The maximum RFU value was used to calculate the percent activation data based on the readings of the Low control (DMSO control) and High control (100 nM positive compound) experimental groups {% activation rate=(RFUsample−RFUlow control)/(RFUhigh control−RFUlow control)×100}. The concentration of the test compound was 11 concentrations after diluting the reaction system 3 times, ranging from 10 uM to 0.17 nM.
# [5] = Rat pharmacokinetic evaluation test, oral administration; type: in vivo; details: male, SD rats, p.o. 5 mg/kg, plasma
# Protocol: SD rats were used as test animals to study the pharmacokinetic behavior of the compounds of the present invention in the rat body (plasma) after oral administration at a dose of 5 mg/kg.
# 3 SD rats/group, male, from Shanghai Jiesijie Experimental Animal Co., Ltd., animal production license number (SCXK (Shanghai) 2013-0006 N0.311620400001794).
# • 0.5% CMC-Na (1% Tween80) was dissolved with ultrasound, and formulated into a clear solution or homogeneous suspension.
# • p.o. respectively after the rats were fasted overnight; • the p.o. dose was 5 mg/kg and the administration volume was 10 mL/kg.
# After oral administration of rats, 0.2 mL of blood was collected from the jugular vein at 0.25 h, 0.5 h, 1.0 h, 2.0 h, and 4.0 h, placed in an EDTA-2K test tube, centrifuged at 6000 rpm for 6 min at 4° C. to separate plasma which was stored at −80° C.; the rats can eat 4 h after administration.
# • 1) 160 μL of acetonitrile was added to 40 μL of plasma sample for precipitation, mixed and centrifuged at 3500×g for 5 to 20 min. • 2) the treated supernatant solution was taken and subjected to LC/MS/MS to analyze the concentrations of the test compounds. LC/MS/MS analysis instrument: AB Sciex API 4000 Qtrap.
# • Liquid phase conditions: Shimadzu LC-20AD pump • chromatographic column: AgilentZORBAX XDB-C18 (50×2.1 mm, 3.5 μm) mobile phase: liquid A was 0.1% aqueous formic acid solution, liquid B was acetonitrile • flow rate: 0.4 mL/min • Elution time: 0-4.0 min, the eluent was as follows:
# The main pharmacokinetic parameters were calculated using WinNonlin 6.1.
structure (smiles),measurement,setting,value
"[2H]C([2H])(c1ccc(-c2ccccc2S(=O)(=O)Nc2noc(C)c2Cl)c(COCC)c1)N1C(=O)C2(CCCC2)N=C1CCCC [Example 44, 4′-((2-butyl-4-oxo-1,3-diazaspiro[4.4]non-1-en-3-yl)methyl-d2)-N-(4-chloro-5-methylisoxazol-3-yl)-2′-(ethoxymethyl)-[1,1′-biphenyl]-2-sulfonamide]",Remaining rate,[1],29.4%
same,Remaining rate,[2],24.6%
same,Remaining rate,[3],33.0%
same,"blood pressure (systolic blood pressure, diastolic blood pressure, mean arterial pressure) compared with the vehicle group",[4],significantly reduced blood pressure
"CCCCC1=NC2(CCCC2)C(=O)N1Cc1ccc(-c2ccccc2S(=O)(=O)Nc2noc(C)c2Cl)c(OCCC)c1 [Example 55, 4′-((2-butyl-4-oxo-1,3-diazaspiro[4.4]non-1-en-3-yl)methyl)-N-(4-chloro-5-methylisoxazol-3-yl)-2′-propoxy-[1,1′-biphenyl]-2-sulfonamide]",IC50,AT1 receptors,3.7 nM
"CCCCC1=NC2(CCCC2)C(=O)N1Cc1ccc(-c2ccccc2S(=O)(=O)Nc2noc(C)c2C)c(COC2CC2)c1 [Example 13, 4′-((2-butyl-4-oxo-1,3-diazaspiro[4.4]non-1-en-3-yl)methyl)-2′-(cyclopropoxymethyl)-N-(4,5-dimethylisoxazol-3-yl)-[1,1′-biphenyl]-2-sulfonamide]",IC50,AT1 receptors,10 nM
"CCCCC1=NC2(CCCC2)C(=O)N1Cc1ccc(-c2ccccc2S(=O)(=O)Nc2noc(C)c2Cl)c(COC2CC2)c1 [Example 52, 4′-((2-butyl-4-oxo-1,3-diazaspiro[4.4]non-1-en-3-yl)methyl)-N-(4-chloro-5-methylisoxazol-3-yl)-2′-(cyclopropoxymethyl)-[1,1′-biphenyl]-2-sulfonamide]",IC50,AT1 receptors,8.6 nM
"CCCCC1=NC2(CCCC2)C(=O)N1Cc1ccc(-c2ccccc2S(=O)(=O)Nc2noc(C)c2Cl)c(COC)c1 [Example 53, 4′-((2-butyl-4-oxo-1,3-diazaspiro[4.4]non-1-en-3-yl)methyl)-N-(4-chloro-5-methylisoxazol-3-yl)-2′-(methoxymethyl)-[1,1′-biphenyl]-2-sulfonamide]",IC50,AT1 receptors,9.1 nM
"CCCCC1=NC2(CCCC2)C(=O)N1Cc1ccc(-c2ccccc2S(=O)(=O)Nc2noc(C)c2C)c(COCC2CC2)c1 [Example 14, 4′-((2-butyl-4-oxo-1,3-diazaspiro[4.4]non-1-en-3-yl)methyl)-2′-((cyclopropylmethoxy)methyl)-N-(4,5-dimethylisoxazol-3-yl)-[1,1′-biphenyl]-2-sulfonamide]",AUC(0-inf),[5],11300 ng·h/mL
same,Cmax,[5],2320 ng/mL
same,Tmax,[5],30 min
same,MRT inf,[5]; read-out: MRT0-∞,5.3 h
same,IC50,AT1 receptors,6.9 nM
"CCCCC1=NC2(CCCC2)C(=O)N1Cc1ccc(-c2ccccc2S(=O)(=O)Nc2noc(C)c2Cl)c(COC(C)C)c1 [Example 72, 4′-((2-butyl-4-oxo-1,3-diazaspiro[4.4]non-1-en-3-yl)methyl)-N-(4-chloro-5-methylisoxazol-3-yl)-2′-(isopropoxymethyl)-[1,1′-biphenyl]-2-sulfonamide]",IC50,AT1 receptors,6.1 nM
"CCCCC1=NC2(CCCC2)C(=O)N1Cc1ccc(-c2ccccc2S(=O)(=O)Nc2noc(C)c2Cl)c(COCC2CC2)c1 [Example 85, 4′-((2-butyl-4-oxo-1,3-diazospiro[4.4]non-1-en-3-yl)methyl)-N-(4-chloro-5-methylisoxazol-3-yl)-2′-((cyclopropylmethoxy)methyl)-[1,1′-biphenyl]-2-sulfonamide]",IC50,AT1 receptors,5.2 nM
